# From ChEMBL document CHEMBL5143617 (Eur J Med Chem, 2022)
# Active and inactive are the calls of the source. The rule behind the calls is not given here.
# Key:
# [1] = molecular target: T1, cAMP and cAMP-inhibited cGMP 3',5'-cyclic phosphodiesterase 10A (Homo sapiens, UniProt Q9Y233); experiment: Inhibition of PDE10A (unknown origin) at 10 uM preincubated for 20 mins followed by substrate addition and measured after 1 hr by PEDlight AMP detection reagent based luminescence assay relative to control; conditions: time 80.0 min
# T1 sequence (Q9Y233 whole entry): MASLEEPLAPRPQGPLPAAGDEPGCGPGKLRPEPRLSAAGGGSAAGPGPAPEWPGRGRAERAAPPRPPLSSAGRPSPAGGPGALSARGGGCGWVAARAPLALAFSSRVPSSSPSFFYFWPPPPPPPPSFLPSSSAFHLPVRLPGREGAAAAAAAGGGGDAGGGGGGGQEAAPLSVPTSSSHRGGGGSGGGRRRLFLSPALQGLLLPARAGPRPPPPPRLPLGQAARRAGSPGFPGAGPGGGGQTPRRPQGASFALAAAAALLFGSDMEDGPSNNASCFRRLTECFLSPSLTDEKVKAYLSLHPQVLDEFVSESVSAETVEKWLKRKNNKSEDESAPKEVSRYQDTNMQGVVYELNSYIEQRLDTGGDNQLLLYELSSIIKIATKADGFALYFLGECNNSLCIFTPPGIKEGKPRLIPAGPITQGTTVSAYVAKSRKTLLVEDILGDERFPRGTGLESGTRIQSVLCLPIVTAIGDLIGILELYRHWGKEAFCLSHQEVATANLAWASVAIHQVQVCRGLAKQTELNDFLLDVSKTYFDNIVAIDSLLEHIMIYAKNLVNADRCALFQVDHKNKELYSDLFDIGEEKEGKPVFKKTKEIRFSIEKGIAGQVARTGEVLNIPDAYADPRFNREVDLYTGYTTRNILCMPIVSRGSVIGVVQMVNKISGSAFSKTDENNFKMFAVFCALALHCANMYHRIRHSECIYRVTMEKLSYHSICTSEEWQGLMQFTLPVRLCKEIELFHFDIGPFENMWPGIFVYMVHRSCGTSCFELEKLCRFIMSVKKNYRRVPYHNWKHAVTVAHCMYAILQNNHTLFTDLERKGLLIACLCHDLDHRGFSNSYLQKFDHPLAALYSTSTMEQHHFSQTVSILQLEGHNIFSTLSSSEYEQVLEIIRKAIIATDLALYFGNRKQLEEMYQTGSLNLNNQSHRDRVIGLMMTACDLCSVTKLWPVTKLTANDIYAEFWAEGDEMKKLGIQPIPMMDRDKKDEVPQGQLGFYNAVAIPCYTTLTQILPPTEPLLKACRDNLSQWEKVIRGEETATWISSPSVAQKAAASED
# Mus musculus [2] = experiment: Anxiolytic-like activity in Swiss albino mouse at 2.5 mg/kg, ip by four plate test; type: functional, organism-based
# [3] = molecular target: 5-hydroxytryptamine receptor 7 (Homo sapiens, UniProt P34969); experiment: Displacement of [3H]-5-CT from human 5-HT7 receptor expressed in CHO-K1 cells membrane by scintillation counter analysis; type: cell membranes
# Chain of 5-hydroxytryptamine receptor 7 (P34969 whole entry): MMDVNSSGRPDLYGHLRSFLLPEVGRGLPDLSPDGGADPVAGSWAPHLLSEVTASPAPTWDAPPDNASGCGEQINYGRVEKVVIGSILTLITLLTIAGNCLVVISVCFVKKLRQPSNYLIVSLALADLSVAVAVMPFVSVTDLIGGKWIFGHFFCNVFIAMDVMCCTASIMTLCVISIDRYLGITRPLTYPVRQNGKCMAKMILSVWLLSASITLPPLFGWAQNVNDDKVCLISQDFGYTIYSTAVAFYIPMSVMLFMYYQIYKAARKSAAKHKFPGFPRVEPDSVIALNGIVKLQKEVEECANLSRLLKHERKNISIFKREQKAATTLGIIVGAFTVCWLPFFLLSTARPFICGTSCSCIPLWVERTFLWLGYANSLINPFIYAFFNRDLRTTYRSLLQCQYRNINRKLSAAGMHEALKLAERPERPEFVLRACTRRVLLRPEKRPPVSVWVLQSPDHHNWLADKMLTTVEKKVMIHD
# [4] = molecular target: T2, 5-hydroxytryptamine receptor 1A (Homo sapiens, UniProt P08908); experiment: Displacement of [3H]-[…] from human 5-HT1A receptor expressed in CHO-K1 cells membrane by scintillation counter analysis; type: cell membranes
# T2 sequence (P08908 whole entry): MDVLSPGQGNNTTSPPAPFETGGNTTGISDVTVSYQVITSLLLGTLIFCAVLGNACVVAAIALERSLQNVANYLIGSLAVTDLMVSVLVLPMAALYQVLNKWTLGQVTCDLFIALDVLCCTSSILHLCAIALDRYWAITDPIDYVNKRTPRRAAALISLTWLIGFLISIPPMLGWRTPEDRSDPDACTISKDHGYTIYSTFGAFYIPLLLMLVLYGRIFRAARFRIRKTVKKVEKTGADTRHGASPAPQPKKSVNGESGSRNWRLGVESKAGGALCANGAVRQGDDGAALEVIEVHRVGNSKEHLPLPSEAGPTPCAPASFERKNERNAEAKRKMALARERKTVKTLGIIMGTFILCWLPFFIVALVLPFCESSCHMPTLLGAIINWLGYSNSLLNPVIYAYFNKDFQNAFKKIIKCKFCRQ
# Rattus norvegicus = experiment: Pro-cognitive activity in MK-801-induced memory impaired Wistar rat assessed as recognition of novel location by measuring discrimination index at 1 mg/kg, ip preincubated for 30 mins followed by MK-801 addition for 30 mins prior to T1 phase by novel object location test; type: functional, organism-based; conditions: time 60.0 min
# Mus musculus [5] = experiment: Antidepressant activity in Swiss albino mouse assessed as reduction in immobility time at 5 mg/kg, ip measured for last 4 mins of 6 mins test by forced swim test; type: functional, organism-based
# [6] = molecular target: T1, cAMP and cAMP-inhibited cGMP 3',5'-cyclic phosphodiesterase 10A; experiment: Inhibition of PDE10A (unknown origin) preincubated for 20 mins followed by substrate addition and measured after 1 hr by PEDlight AMP detection reagent based luminescence assay
inhibition [1] [%],Ki [3] [nM],Ki [4] [nM],SMILES,Activity (Mus musculus [2]),Activity (Rattus norvegicus),Activity (Mus musculus [5]),IC50 [6] [nM]
3,251,32.4,COc1cc2ncnc(N3CCC(CN4CCN(c5ccccc5)CC4)C3)c2cc1OC (stereo unspecified),Active,Active,Active,
,1.12,,CSc1ccc2c(c1)CC(N1CCN(C)CC1)c1ccccc1S2 (stereo unspecified),,,,
3,229,20.9,COc1cc2ncnc(N3CCC(CN4CCN(c5cccc(C(F)(F)F)c5)CC4)C3)c2cc1OC (stereo unspecified),Active,,,
18,> 1000,468,COc1cc2ncnc(N3CCC(CN4CCN(c5ccc(O)cc5)CC4)C3)c2cc1OC (stereo unspecified),,,,
9,> 1000,83.2,O=c1[nH]c2cccc(N3CCN(Cc4cnc5ccccc5n4)CC3)c2[nH]1,,,,
17,417,245,O=c1[nH]c2cccc(N3CCN(Cc4ccc5ccccc5n4)CC3)c2[nH]1,,,,
2,355,245,COc1cc2ncnc(N3CCC(CN4CCN(c5ccc(Cl)c(Cl)c5)CC4)C3)c2cc1OC (stereo unspecified),,,,
4,372,30.2,COc1cc2ncnc(N3CCC(CN4CCN(c5cccc(Cl)c5)CC4)C3)c2cc1OC (stereo unspecified),,,,
,661,,COc1cc2ncnc(N3CCC(CN4CCN(c5ccccc5O)CC4)C3)c2cc1OC (stereo unspecified),,,,6030
11,> 1000,251,COc1cc2ncnc(N3CCC(CN4CCN(c5ncccn5)CC4)C3)c2cc1OC (stereo unspecified),,,,

SMILES,inhibition [1] [%],Ki [3] [nM],Ki [4] [nM],Activity (Mus musculus [2]),Activity (Rattus norvegicus),Activity (Mus musculus [5]),IC50 [6] [nM]
COc1cc2ncnc(N3CCC(CN4CCc5ccccc5C4)C3)c2cc1OC (stereo unspecified),40,603,> 1000,,,,105000
COc1cc2ncnc(N3CCN(Cc4cnc5ccccc5n4)CC3)c2cc1OC,29,> 1000,> 1000,,,,170000
c1ccc2nc(CN3CCN(c4cccc5cn[nH]c45)CC3)ccc2c1,,> 1000,> 1000,,,,
